From patent US20140227408A1, “MEAT TREATMENT AND PRESERVATION METHOD” (RED MEAT AS, priority 2011, published 2014)

Experiments:
Set-up in all cases: species or system cattle
[1] = Colour L*, a*, b* of treated ground beef, low oxygen packaging (Example 5); conditions: low oxygen packaging
Description: Beef M. semimembranosus (M.S.) and beef fat tissue were collected four days post mortem (Fatland A/S, Oslo, Norway). The packaging day is defined as day zero, however, the tissues were 4 days post mortem on packing day. A piece of meat from proximal end was cut from each muscle in order to measure oxygen consumption, pH and surface colour. Fat tissue from pigs fed rapeseed and vitamin E to enhance the content of polyunsaturated fatty acids were from HKScan (Ruokatalo, Finland). The fat tissue was transported vacuum-packaged and frozen. Samples of minced fat tissue were removed for fatty acid analysis.
The beef muscles were cut into pieces of approximately 10×5 cm and mixed to 14% w/w fat by using the fat tissues. Beef fat and pork fat tissues were ground twice with either raw beef from four young (16-19 months) or four old (46-81 months) cattle. […] The ground meat was blended manually with solutions (all at pH 5.8) with various TCA and glycolytic ingredients (see below).
To maintain pH at 5.8 the solutions were prepared by mixing the acid form and the corresponding sodium salt of these chemicals.
[…] The solution was quickly and properly stirred into the minced meat and the blended system was subsequently packaged. […] Two reference samples with 40 ml of distilled water added to 360 gram of ground beef were also prepared each of the four production day, i.e. altogether 8 references were prepared. The samples were packaged in either low or high oxygen atmosphere.
The ground beef was packaged in black amorphous polyethylene terephthalate (APET) trays that were sealed with ethylene vinyl alcohol (EVOH) top films. The trays and films (Wipak Multipet and Wipak Biaxer, both Wipak, Nastola, Finland) had oxygen transmission rates of 7 and 5 cm^3/m^2/24 h at 23° C. at 50% relative humidity. Packaging was carried out within 1 hour after grinding. The samples were stored in darkness at 4° C. for 8 days in a high-oxygen atmosphere (75% oxygen and 25% CO2) and for 13 days in a low-oxygen atmosphere (60% CO2 and 40% N2). These food grade gas mixtures were supplied by AGA (Oslo, Norway).
The colour of the ground meat samples was measured with a Konica Minolta Chroma Meter CR 410 (Konica Minolta Sensing Inc., Osaka, Japan) using the glass light projection tube CR A 33e with wide illumination area (61 mm) and illuminant D65. The instrument was calibrated each day by measuring a white ceramic plate (L*=97.9; a*=0.05; b*=2). All colour measurements were made with 3 replicates (CIE, 1976, “Recommendations on uniform colour spaces-colour difference equations” (Vol. Supplement No. 2 to CIE). Paris, France: Commission Internationale de l'Eclairage).
The colour of the samples packaged in high O2 was measured after 0, 1, 3, 6 and 8, days of storage from packaging day, while low O2 samples were measured at 0 to 13 days of storage using Minolta and reflectance measurements.
The experimental design is visualized in FIG. 5. A 2^2 design (animal age and type of fat tissue) was split over 4 experimental days (FIG. 5, and Tables 10 and 11). To each corner of this 2^2 design was added a 3 component (succinate, pyruvate and glutamate-malate additions; 0, 50 and 100%) simplex lattice mixture design with 2 additional centre experiments as shown in FIG. 5.

[2] = Colour (b*) of minced beef mixed with test brines, stored in high-oxygen atmosphere (Example 1); conditions: day 6 of storage, amount 1 = 0.1 mol per kg meat
Protocol: (§1) Beef fat and pork fat (high degree of unsaturation) were used with raw semimembranosus muscle from young and old cattle. Beef from the hind leg was removed, weighed, chopped, mixed with fat (14% by weight), and the various test compounds were added to the minced meat. The mixtures were packed into boxes and sealed with plastic sheeting. Packing was done with MAP to yield a low-oxygen atmosphere (60% CO2 and 40% N2) and also under a high-oxygen atmosphere (75% oxygen and 25% CO2). The samples were stored in darkness at 4° C. from 0 to 8 days for the high-oxygen atmosphere and 0 to 13 days for the MAP samples. A Cheers Packaging Machine (Promens) was used for packaging of samples. Triplicate reference samples with only 40 ml of distilled water mixed and packaged as described above were evaluated at days 6 and 8 for the high-oxygen environment and at days 6, 8, 10 and 13 for the MAP environment.
(§2) Samples of test compounds were prepared with succinate, glutamate, malate, pyruvate and citrate in different combinations, either as single chemicals or as mixtures. The acid and conjugate base of each active component was added in the appropriate ratio to provide the solutions (brines) with a pH of 5.8. As will be clear from the foregoing description, the “succinate” used in this experiment was a combination of succinic acid and sodium succinate. The “glutamate”, “malate”, etc. were used equivalently.
(§3) Meat and fat was cut into small pieces and minced (3 mm holes). 40 g of brine was added to 360 g mince and packed in the plastic packing.
(§4) Several variables were included in the design of the experiment, using a 2^3 factorial design. […] Malate and glutamate were considered together in the design and analysis, but their ratio was varied in the experiments from pure malate to pure glutamate.
(§5) Colour changes in the samples were measured with a FOSS NIRSystems™ 6500 analyser and a Konica Minolta Chroma meter CR 410 (Konica Minolta Sensing Inc., Osaka, Japan). Colour was measured using the parameters L*, a* and b* at 0, 1, 3, 6 and 8 days for samples stored in 75% oxygen. Colour changes of the samples packaged in MAP were measured at 0, 1, 3, 6, 8, 10 and 13 days of storage time.
Results from the experiments carried out on the various meat and fat samples are shown below in Tables 1 to 8. Values given for the amount of active agents in Tables 1 to 8 correspond to the molar proportion of the given agent within the brine/meat mixture, where a value of 1 corresponds to 0.1 moles active agent per kg of meat, a value of 0.5 corresponds to 0.05 mol/kg, etc. […]
The data from the experiment described in Example 1 were analyzed using an ANOVA model with all main effect and second and higher order effects according to the method described in Langsrud, Ø. […]

[3] = Colour (b*, a*) of minced beef mixed with test brines, stored in low-oxygen MAP (Examples 1-2); conditions: for b*: low oxygen (MAP), day 6 of storage, amount 1 = 0.1 mol per kg meat
Protocol: as §1, §2, §3, §4, §5
Results from the experiments carried out on the various meat and fat samples are shown below in Tables 1 to 8. Values given for the amount of active agents in Tables 1 to 8 correspond to the molar proportion of the given agent within the brine/meat mixture, where a value of 1 corresponds to 0.1 moles active agent per kg of meat, a value of 0.5 corresponds to 0.05 mol/kg, etc. […] The b* values, which are considered to be most representative of the colour changes in the meat being tested, are shown. All results correspond to measurements made on day 6 of storage
The data from the experiment described in Example 1 were analyzed using an ANOVA model with all main effect and second and higher order effects according to the method described in Langsrud, Ø. (“50-50 Multivariate Analysis of Variance for Collinear Responses” The Statistician (2002) 51, pp. 305-317). […] The mixture design was fractional.

[4] = old beef muscle mixed with beef fat
[5] = old beef muscle mixed with pork fat
[6] = young beef muscle mixed with pork fat

Row | SMILES | effect on redness (a*), in words [1] | b* [2, 4] | b* [2, 5] | b* ([2]; young beef muscle mixed with beef fat) | b* [2, 6] | a* ([3]; low-oxygen environment, zero citrate, after 6 days storage, relative amounts of succinate, pyruvate, glutamate + malate) | b* [3, 4] | b* [3, 5] | b* ([3]; young beef muscle mixed with beef fat, 4° C.) | b* [3, 6]
1 | N[C@@H](CCC(=O)O)C(=O)O [glutamate] | nominally higher a* values |  |  |  |  |  |  |  |  | 
2 | O=C(O)CCC(=O)O [succinate 1.00, succinate] |  | 3.45 | 3.77 | 4.01 | 4.70 | 9.81 | 1.48 | 0.98 | 1.07 | 1.34
